# Data reported in patent US10473646B2, “In vitro culturing or expanding human or animal tissue” (UNIVERSITAETSSPITAL BASEL, priority 2014, dated 2019).
# What was measured:
# Type in all cases: cell-based, human
# [1] = system: Luminal A breast cancer tissue; experiment: In-vitro drug test on Luminal A breast cancer tissue chunks cultured in 3D perfusion bioreactor; conditions: 100 nM, added at day 0 of bioreactor culture
# Description: (§1) The system is tested mainly for colorectal cancer and Luminal A breast cancer. Thereby a tissue specimen is manually cut in small chunks at a size of 1 mm to 2 mm per side. The pieces are placed in between two collagen scaffolds having a diameter of 8 mm to create an assembly or “sandwich” that it is then placed in a perfusion chamber of the 3D perfusion bioreactor. For each bioreactor, 8-10 mL of culture media are used. The chunks are cultured for 10 to 20 days without medium change.
# (§2) Thereby, essentially the same or similar methods and procedures are applied as described hereinbefore in connection with the second example directed to colorectal cancer tissue.
# (§3) Luminal A breast cancer is defined as estrogen receptor (ER) positive, progesterone receptor (PR) positive, human epidermal growth factor receptor 2 (HER2) negative and with few proliferating tumor cells (low % of Ki67 positive cells). This type of tumor requires estrogen as growth factor for its survival and expansion. The downsized tissue or tissue chunks are cultured in a medium containing 10% of human autologous serum (AS), therefore receiving all the growth factors comprising the estrogen. […]
# [2] = system: tumor infiltrating lymphocytes (TILs) in Luminal A Breast Cancer (MAM18); experiment: PHA stimulation of tumor infiltrating lymphocytes in in vitro cultured tumor chunks (immunohistochemistry CD45, CD3, CD68); conditions: 1 ng/mL added at day 0, 7 days
# Description: One important component of the tumor microenvironment is represented by the tumor infiltrating lymphocytes (TILs) that for some tumor types plays an important role by determining the patient prognosis and it is gaining a major attention in the so called cancer immune-therapy. By using PHA (Phytohemagglutinin), TILs are stimulated in their metabolic and proliferative activity, in order to understand if it was possible their stimulation inside the in vitro cultured tumor chunks. The PHA (1 ng/mL) is added at the beginning of the bioreactor culture (day 0).
# These raise the possibility to study immunological question or test cancer immunotherapies on in vitro cultured tumor specimens.
# [3] = system: Luminal A breast cancer tissue; experiment: Estrogen supplementation effect on in vitro culture of Luminal A breast cancer tissue chunks; conditions: 200 ng/mL, medium with 10% autologous serum
# Description: as §1, §2, §3
# The estrogen supplementation effect on in vitro culture is evaluated. […]
molecule,measurement,setting,value
C[C@]12CC[C@@H]3c4ccc(O)cc4C[C@@H](CCCCCCCCC[S+]([O-])CCCC(F)(F)C(F)(F)F)[C@H]3[C@@H]1CC[C@@H]2O (stereo partly drawn) [Fulvestrant],effect of anti-estrogen receptor drug treatment on in vitro cultured tumor tissue (FIG. 13),[1],there is an effect
Phytohemagglutinin [PHA],"presence of TILs after PHA treatment (CD45, CD3, CD68 staining, FIG. 14)",[2],the presence of TILs is still detectable
2-Estradiol,survival and proliferation of the tissue with extra estrogen supplementation (E+) versus without (E-),[3],do not show any particular difference
